The source of these data is the METLIN SMRT retention time set (Domingo-Almenara et al. 2019).

A short description of this data set: gradient 5% acetonitrile 3 min, to 50% in 2 min, to 85% in 15 min, held 3 min, 100 µL/min. The conditions noted are these: column: Zorbax Extend-C18 2.1 x 50 mm; eluents: water / acetonitrile, 0.1% formic acid. Put shortly: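 Using water and acetonitrile that each contained 0.1% formic acid, mixtures of ~100 pure standards were separated at 100 μL/min on a Zorbax Extend-C18 column (2.1 × 50 mm, 1.8 μm). The HPLC fed a quadrupole time-of-flight mass spectrometer working in positive and negative ionization mode, with dead and dwell volumes of 40 μL and 900 μL. Data were acquired over 3 months. Retention time was read from computationally picked adduct peaks after manual inspection of each.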
Molecule `COc1ccc(OC)c(NC(=O)Cc2cccn2-c2ccc(Cl)cc2)c1` yielded an RP-LC retention time of 1080 s.
With `c1ccc(-c2csc(Nc3ncccn3)n2)nc1` the figure was 594 s; with `COc1ccc(CNC(=O)N2CC=C(c3cn(C(C)C)c4ncccc34)CC2)cc1`, 678 s.
In the case of `CN1CCN(c2cc(-c3nc(-c4ccccc4)no3)c3ccccc3n2)CC1`, the RP-LC retention time turned out to be 796 s.
`Cc1cc(C(=O)N2CCCn3ccnc3C2C2CCCC2)n[nH]1` (stereo unspecified): the RP-LC retention time came out at 584 s.
With `COc1ccc(CNC(=O)c2cc(-c3ccccc3)ns2)cc1` the figure was 905 s.
Take `CCS(=O)(=O)N1CC(=O)N(c2ccc(Cl)cc2)C(C)(C(=O)NCc2ccc(F)cc2)C1` (stereo unspecified): the RP-LC retention time is 840 s.
With `COC(=O)c1c(C)[nH]c(C(=O)N2CCCC(C(=O)NCCCN3CCCCCC3)C2)c1C` (stereo unspecified) the figure was 592 s.
For the molecule `CS(=O)(=O)Nc1ccc(C2(C(=O)NCc3ccc(F)cc3Cl)CCC2)cc1`, the RP-LC retention time was found to be 847 s.
As for `Cn1c(=O)c2nc(S(=O)(=O)CCC(=O)Nc3cc(Cl)ccc3F)n(C)c2n(C)c1=O`, the figure is 771 s; as for `O=C(NCc1cccs1)c1ccc2nc(CCc3ccccc3)oc2c1`, 979 s.
With `O=C(NCc1ccc2c(c1)N(C(=O)c1ccccc1)CC2)NC1CCCC1` the figure was 818 s; with `Cc1ccc(CNC(=O)c2cc3n(n2)CC(C)(C(=O)NCc2ccccc2)N(C)C3=O)cc1` (stereo unspecified), 766 s.
With `Cc1ccc(NC(=O)c2sc(-n3cccc3)nc2C(C)C)cc1F` the figure was 1320 s; with `O=C(NCc1ccccc1)c1cc(-c2ccc(F)cc2)ns1`, 1040 s.
The molecule `COC(=O)c1ccccc1S(=O)(=O)N1CCN(Cc2nnnn2-c2ccccc2)CC1` displayed an RP-LC retention time of 812 s.
`O=C(c1nc(Cn2nc(-c3ccc(F)cc3)ccc2=O)no1)N1CCC2(CC1)OCCO2` came in with an RP-LC retention time of 783 s.
`COC(=O)C1=CN(c2cccc(C)c2C)c2ccccc2S1(=O)=O`: the RP-LC retention time worked out at 916 s.
`O=C(NC1CCCC1)N1CCC2(CC1)N(c1ccccc1)C(=O)CS2=O` (stereo unspecified): the RP-LC retention time came out at 648 s.
`CC(C)CNC(=O)c1cn(-c2ccc(-c3nc(C4CC4)no3)cn2)cn1` showed an RP-LC retention time of 1110 s.
`COc1ccc(NS(=O)(=O)c2cccc(-c3nc(-c4ccccc4)no3)c2)cc1OC` returned an RP-LC retention time of 1060 s.
As for `Cc1cnc2c(N)cc(C)c(C)c2c1`, the figure is 715 s.
In turn, `c1ccc(C2(c3ccccc3)CC2C2=NCCN2)cc1` (stereo unspecified) showed an RP-LC retention time of 732 s.
For the molecule `CCOc1ccc(N2CC(c3nc(-c4ccc(OC)cc4)no3)CC2=O)cc1` (stereo unspecified), the RP-LC retention time amounted to 972 s.
With `C1CCC(NC2=NCCO2)CC1` the figure was 615 s.
The molecule `COc1ccc(C(=O)NCc2ccccc2OC(F)(F)F)nn1` showed an RP-LC retention time of 840 s.
In turn, `COCCOc1ccc2c(n1)CCN(C(=O)Nc1cc(C)ccc1C)C2` showed an RP-LC retention time of 873 s.
As for `O=C(C1CCCCC1)N1CC(c2nc(-c3ccccc3)no2)C2(CCOCC2)C1` (stereo unspecified), the figure is 963 s; as for `COc1ccc(-c2csc(NC(=O)c3cc(OC)c(OC)c(OC)c3)n2)cc1`, 1030 s.
For the molecule `CCOc1ccc2ncc(C#N)c(Nc3cc(OC)c(OC)c(OC)c3)c2c1`, the RP-LC retention time is 607 s.
For `Cn1c(=O)n(C)c2cc(CNc3ccc(C(=O)O)c(Cl)c3)ccc21`, the RP-LC retention time was 697 s.
`Cc1cccc(N2CCN(CC(O)COc3ccccc3Cl)CC2)c1` (stereo unspecified) displayed an RP-LC retention time of 828 s.
As for `CCOC(=O)Cc1ccc(NC(=O)NC2CCN(c3ccc(F)c(C)c3)C2=O)cc1` (stereo unspecified), the figure is 853 s.
The molecule `Cc1noc(C2CN(C(=O)Nc3ccc(F)cc3)CC23CCOCC3)n1` (stereo unspecified) returned an RP-LC retention time of 723 s.
`Cc1nc2cccnc2n1C1CCN(C(=O)Nc2ccc(Cl)cc2)CC1` came in with an RP-LC retention time of 659 s.
Molecule `CC(=O)CCCCn1cnc2c1c(=O)n(C)c(=O)n2C` came in with an RP-LC retention time of 672 s.
As for `Cc1ccc2c(Nc3cccc(C(C)C)c3)c(C(=O)N3CCSCC3)cnc2n1`, the figure is 688 s; as for `COc1cc(-c2nc3ccc(C)cn3c2Nc2ccc(Cl)cc2)ccc1O`, 698 s.
With `CCc1nnc([C@@H]2CC(F)(F)CN2C(=O)Cc2cc(C)no2)o1` the figure was 674 s.
`COc1cccc(C(=O)CSc2ccc(-n3nc(C)cc3C)nn2)c1`: the RP-LC retention time amounted to 931 s.
Molecule `COc1ccc(NC(=O)c2[nH]c3cc(C)sc3c2CN(C)C)cc1` gave an RP-LC retention time of 666 s.
As for `CCCNC(=O)N(C1CCOCC1)C1CCN(S(=O)(=O)c2ccc(C)cc2C)CC1`, the RP-LC retention time was determined as 841 s.
In turn, `CCc1cc(N2CCN(C(=O)c3cc(OC)c(OC)c(OC)c3)CC2)nc2nncn12` came in with an RP-LC retention time of 593 s.
Molecule `CCCCCn1c(=O)c2ccccc2n(Cc2nc(-c3ccc(OC)c(OC)c3)no2)c1=O` had an RP-LC retention time of 1120 s.
`COc1ccc(-c2nnc(Cc3nc(-c4ccc(C)cc4)no3)o2)cc1` had an RP-LC retention time of 1010 s.
As for `Cc1c(C(=O)Nc2c3c(nn2C(C)(C)C)CSC3)cccc1[N+](=O)[O-]`, the RP-LC retention time was 814 s.
`c1ccc(-c2nc3nccc(-c4ccc5c(c4)OCO5)n3n2)cc1`: the RP-LC retention time was determined as 905 s.
For the molecule `COc1ccc(Cc2nnc(C3CCN(C(=O)c4ccc(=O)[nH]c4)CC3)s2)cc1`, the RP-LC retention time worked out at 612 s.
With `CCOCCCNC(=O)CN1c2ccc(CC)cc2-c2ccccc2S1(=O)=O` the figure was 926 s.
In turn, `Cc1noc(C)c1Cc1ccc(C(=O)NCC2Cn3cccc3C(=O)N2C)o1` (stereo unspecified) displayed an RP-LC retention time of 669 s.
With `CCOCCCNCc1ccc(-c2ccc(Br)cc2)o1` the figure was 705 s; with `Cc1noc(-c2nn(C)c3c2CN(C(=O)C2CCCO2)CC3)n1` (stereo unspecified), 600 s.
As for `COC(=O)c1c(NCCc2cccs2)c2ccc(F)cc2[nH]c1=O`, the figure is 766 s; as for `O=C(Cn1nc2c(Oc3cccc(F)c3)nccn2c1=O)Nc1ccc(F)cc1`, 849 s; as for `COC(=O)c1ccc(Cl)cc1NC(=O)N1CCC2(CC1)NC(=O)c1ccccc1O2`, 1000 s.
Consider `CC(=O)Nc1ccc(NC(=O)CSc2ccc(N3CCCC(C(=O)NC4CC4)C3)nn2)cc1` (stereo unspecified), for which the RP-LC retention time amounted to 584 s.
In turn, `Cc1ccc(C(C)C)c(OCC(=O)Nc2ccc(S(=O)(=O)Nc3cc(C)on3)cc2)c1` displayed an RP-LC retention time of 1000 s.
For `COC(=O)C1=CN(c2ccc(OC)cc2)c2ccccc2S1(=O)=O`, the RP-LC retention time amounted to 819 s.
The molecule `CCn1nc(C)c2ccn(CC(=O)NCc3ccc(Br)cc3)c(=O)c21` displayed an RP-LC retention time of 797 s.
Molecule `O=C(NCc1cccc(C(F)(F)F)c1)C1(CCO)CCN(c2ncccn2)C1` (stereo unspecified) yielded an RP-LC retention time of 669 s.
For `Cc1ccc(CNC(=O)Cn2nc(N3CCCC(C)C3)c3ccccc3c2=O)cc1` (stereo unspecified), the RP-LC retention time is 1110 s.
`Cc1cc(-c2c(C)sc(C)c2S(=O)(=O)Nc2cccc(Br)c2)n[nH]1`: the RP-LC retention time amounted to 1100 s.
Take `CCN1C(=O)COc2ccc(-c3noc(C4CC(=O)N(c5ccc(C)c(C)c5)C4)n3)cc21` (stereo unspecified): the RP-LC retention time came out at 992 s.
The molecule `CCn1c(=O)c2ccccc2n(Cc2nc(-c3ccccc3)no2)c1=O` showed an RP-LC retention time of 991 s.
With `COc1ccc(-c2nc(CNC(=O)c3ccc(-c4noc(C(C)C)n4)cc3)no2)cc1` the figure was 1000 s; with `O=C(Cc1ccccc1)N1CCN(c2cc(-c3ccccc3)[nH]n2)CC1`, 774 s; with `CCCC(=O)Nc1ccc(OCc2cc(C(=O)NC3CCCC3)no2)cc1`, 854 s.
For the molecule `COc1ccc(-c2nc(-c3cccc(-c4ccn[nH]4)c3)no2)cc1OC`, the RP-LC retention time is 905 s.
Turning to `COC[C@@H]1OCCN(Cc2ccc(C)c(C)c2)[C@H]1c1ccccc1`, the RP-LC retention time was found to be 724 s.
For the molecule `COc1cccc(-c2nc3cnccn3c2NCCC(=O)NC2CCCCC2)c1`, the RP-LC retention time was determined as 710 s.
For `Cc1cc(C)c(S(=O)(=O)N2CCCCC2)c(C)c1[N+](=O)[O-]`, the RP-LC retention time came out at 1040 s.
As for `COc1cccc(CNC(=O)N2CCCC(C)(C(=O)NCc3ccccc3C)C2)c1` (stereo unspecified), the figure is 860 s; as for `CCc1nc(OCC(=O)N(CC)c2ccccc2)c2ccccc2n1`, 798 s; as for `COc1ccc(-c2csc(NC(=O)c3sc(C)nc3C)n2)cc1`, 886 s.
As for `CCCOc1cc(N2CCN(C(=O)CC(C)C)CC2)nc(C)n1`, the figure is 597 s; as for `COc1cccc(/C=C/C(=O)N2CCC(c3cc(N)on3)CC2)c1`, 716 s; as for `CCCN1CCn2cc(C(=O)NCc3cccc(Br)c3)nc2C1`, 624 s.
Molecule `CC(C)CCN1CCC(N2CCN(S(=O)(=O)c3ccccc3Cl)CC2)C1=O` (stereo unspecified) registered an RP-LC retention time of 668 s.
With `Cc1cnc(C(=O)N2CCC(F)(F)C(COCC3CC3)C2)cn1` (stereo unspecified) the figure was 794 s; with `COc1ccc2nc(NC3=NCN(Cc4ccco4)CN3)nc(C)c2c1`, 640 s; with `CCOC(=O)C(Cc1c(C)[nH]c2ccccc12)C(=O)OCC`, 1000 s.
